The NIST ThermoML archive (doi:10.1016/j.jct.2014.01.004)
± gives the expanded uncertainty stated by the source.

Tests used:
[1] = for viscosity / speed of sound / mass density: 101.33 kPa, Liquid; for viscosity: Falling or rolling sphere viscometry; for speed of sound: Sing-around technique in a fixed-path interferometer; for mass density: Vibrating tube method
[2] = Molar enthalpy of transition or fusion; settings: Crystal; DSC

Compound | viscosity ([1]; 293.15 K) | speed of sound ([1]; 293.15 K) | mass density ([1]; 293.15 K) | viscosity ([1]; 298.15 K) | speed of sound ([1]; 298.15 K) | mass density ([1]; 298.15 K) | viscosity ([1]; 303.15 K) | speed of sound ([1]; 303.15 K) | mass density ([1]; 303.15 K) | viscosity ([1]; 308.15 K) | speed of sound ([1]; 308.15 K) | mass density ([1]; 308.15 K) | viscosity ([1]; 313.15 K) | speed of sound ([1]; 313.15 K) | mass density ([1]; 313.15 K) | viscosity ([1]; 318.15 K) | speed of sound ([1]; 318.15 K) | mass density ([1]; 318.15 K) | viscosity ([1]; 323.15 K) | speed of sound ([1]; 323.15 K) | also measured
CC(=O)[O-].CCC[NH3+] [propylammonium acetate] | 932.22 ± 95 mPa·s | 1517.1 ± 5.1 m/s | 989.97 ± 5.3 kg/m3 | 627.41 ± 56 mPa·s | 1508 ± 5.1 m/s | 986.91 ± 5.3 kg/m3 | 435.42 ± 34 mPa·s | 1497.1 ± 5.1 m/s | 983.85 ± 5.2 kg/m3 | 309.95 ± 21 mPa·s | 1487.6 ± 5.1 m/s | 980.77 ± 5.2 kg/m3 | 226.35 ± 13 mPa·s | 1477 ± 5.1 m/s | 977.69 ± 5.2 kg/m3 | 167.69 ± 8.2 mPa·s | 1467.8 ± 5.1 m/s | 974.6 ± 5.1 kg/m3 | 128.15 ± 5.5 mPa·s | 1457.5 ± 5.1 m/s | mass density ([1]; 323.15 K): 971.5 ± 5.1 kg/m3; viscosity ([1]; 328.15 K): 99.03 ± 3.8 mPa·s; speed of sound ([1]; 328.15 K): 1447.9 ± 5.1 m/s; mass density ([1]; 328.15 K): 968.4 ± 5.1 kg/m3; viscosity ([1]; 333.15 K): 78.03 ± 2.7 mPa·s; speed of sound ([1]; 333.15 K): 1437.3 ± 5.1 m/s; mass density ([1]; 333.15 K): 965.3 ± 5 kg/m3; viscosity ([1]; 338.15 K): 61.96 ± 2 mPa·s; speed of sound ([1]; 338.15 K): 1427.4 ± 5.1 m/s; mass density ([1]; 338.15 K): 962.17 ± 5 kg/m3; viscosity ([1]; 343.15 K): 50.02 ± 1.6 mPa·s; speed of sound ([1]; 343.15 K): 1417.5 ± 5.1 m/s; mass density ([1]; 343.15 K): 959.03 ± 5 kg/m3; Glass transition temperature ([1]; DTA): -26.00 ± 4 °C
CCC[NH3+].O=C[O-] [propylammonium formate] | 96.77 ± 3.7 mPa·s | 1553.1 ± 5.2 m/s | 996.18 ± 5.4 kg/m3 | 78.6 ± 2.8 mPa·s | 1542.7 ± 5.2 m/s | 993.47 ± 5.3 kg/m3 | 63.58 ± 2.1 mPa·s | 1532.4 ± 5.1 m/s | 990.77 ± 5.3 kg/m3 | 52.67 ± 1.7 mPa·s | 1522.2 ± 5.1 m/s | 988.09 ± 5.3 kg/m3 | 43.97 ± 1.4 mPa·s | 1512 ± 5.1 m/s | 985.42 ± 5.2 kg/m3 | 37.16 ± 1.2 mPa·s | 1501.8 ± 5.1 m/s | 982.75 ± 5.2 kg/m3 | 31.43 ± 1 mPa·s | 1491.7 ± 5.1 m/s | Molar enthalpy of transition or fusion [2]: 2.17 ± 0.12 kcal/mol; mass density ([1]; 323.15 K): 980.1 ± 5.2 kg/m3; viscosity ([1]; 328.15 K): 26.92 ± 0.88 mPa·s; speed of sound ([1]; 328.15 K): 1481.6 ± 5.1 m/s; mass density ([1]; 328.15 K): 977.45 ± 5.2 kg/m3; viscosity ([1]; 333.15 K): 23.32 ± 0.77 mPa·s; speed of sound ([1]; 333.15 K): 1471.7 ± 5.1 m/s; mass density ([1]; 333.15 K): 974.8 ± 5.1 kg/m3; viscosity ([1]; 338.15 K): 20.18 ± 0.66 mPa·s; speed of sound ([1]; 338.15 K): 1461.8 ± 5.1 m/s; mass density ([1]; 338.15 K): 972.15 ± 5.1 kg/m3; viscosity ([1]; 343.15 K): 17.57 ± 0.58 mPa·s; speed of sound ([1]; 343.15 K): 1452 ± 5.1 m/s; mass density ([1]; 343.15 K): 969.49 ± 5.1 kg/m3; Normal melting temperature ([1]; Crystal, DTA): 34.00 ± 4 °C
CC(=O)[O-].[NH3+]CCCO [3-hydroxypropylammonium acetate] | 4261.7 ± 650 mPa·s | 1779.8 ± 5.2 m/s | 1114.58 ± 6.7 kg/m3 | 2827 ± 390 mPa·s | 1770.8 ± 5.2 m/s | 1112.02 ± 6.7 kg/m3 | 1937 ± 240 mPa·s | 1761.9 ± 5.2 m/s | 1109.46 ± 6.7 kg/m3 | 1348.5 ± 150 mPa·s | 1753.3 ± 5.2 m/s | 1106.91 ± 6.7 kg/m3 | 970.9 ± 100 mPa·s | 1745.2 ± 5.2 m/s | 1104.36 ± 6.6 kg/m3 | 714.44 ± 66 mPa·s | 1736.4 ± 5.2 m/s | 1101.8 ± 6.6 kg/m3 | 526 ± 44 mPa·s | 1727.8 ± 5.2 m/s | mass density ([1]; 323.15 K): 1099.24 ± 6.5 kg/m3; viscosity ([1]; 328.15 K): 400.11 ± 30 mPa·s; speed of sound ([1]; 328.15 K): 1719.3 ± 5.2 m/s; mass density ([1]; 328.15 K): 1096.68 ± 6.5 kg/m3; viscosity ([1]; 333.15 K): 305.97 ± 20 mPa·s; speed of sound ([1]; 333.15 K): 1710.3 ± 5.2 m/s; mass density ([1]; 333.15 K): 1094.13 ± 6.5 kg/m3; viscosity ([1]; 338.15 K): 238.21 ± 14 mPa·s; speed of sound ([1]; 338.15 K): 1702.8 ± 5.2 m/s; mass density ([1]; 338.15 K): 1091.59 ± 6.5 kg/m3; viscosity ([1]; 343.15 K): 190.4 ± 9.9 mPa·s; speed of sound ([1]; 343.15 K): 1693.6 ± 5.2 m/s; mass density ([1]; 343.15 K): 1089.03 ± 6.4 kg/m3; Glass transition temperature ([1]; DTA): -26.00 ± 4 °C
O=C([O-])C(F)(F)F.[NH3+]CCCO [3-hydroxypropylammonium trifluoroacetate] | 1430.2 ± 170 mPa·s | 1487.9 ± 7.1 m/s | 1311.44 ± 19 kg/m3 | 970.33 ± 100 mPa·s | 1476.5 ± 7.1 m/s | 1307.81 ± 19 kg/m3 | 677.32 ± 64 mPa·s | 1465.5 ± 7.1 m/s | 1304.2 ± 19 kg/m3 | 483.03 ± 41 mPa·s | 1454.9 ± 7.1 m/s | 1300.58 ± 19 kg/m3 | 352.31 ± 26 mPa·s | 1444.5 ± 7.1 m/s | 1296.96 ± 19 kg/m3 | 262.07 ± 17 mPa·s | 1434.3 ± 7.1 m/s | 1293.34 ± 18 kg/m3 | 198.79 ± 12 mPa·s | 1424.2 ± 7.1 m/s | mass density ([1]; 323.15 K): 1289.72 ± 18 kg/m3; viscosity ([1]; 328.15 K): 153.05 ± 8.1 mPa·s; speed of sound ([1]; 328.15 K): 1413.9 ± 7.1 m/s; mass density ([1]; 328.15 K): 1286.1 ± 18 kg/m3; viscosity ([1]; 333.15 K): 119.86 ± 5.8 mPa·s; speed of sound ([1]; 333.15 K): 1403.6 ± 7.1 m/s; mass density ([1]; 333.15 K): 1282.49 ± 18 kg/m3; viscosity ([1]; 338.15 K): 94.92 ± 4.3 mPa·s; speed of sound ([1]; 338.15 K): 1393.2 ± 7.1 m/s; mass density ([1]; 338.15 K): 1278.88 ± 18 kg/m3; viscosity ([1]; 343.15 K): 76.72 ± 3.3 mPa·s; speed of sound ([1]; 343.15 K): 1382.8 ± 7.1 m/s; mass density ([1]; 343.15 K): 1275.25 ± 18 kg/m3; Glass transition temperature ([1]; DTA): -28.00 ± 4 °C
O=C[O-].[NH3+]CCCO [3-hydroxypropylammonium formate] | 339.04 ± 23 mPa·s | 1824.3 ± 5.2 m/s | 1148.29 ± 7.2 kg/m3 | 257.15 ± 16 mPa·s | 1816.3 ± 5.2 m/s | 1145.84 ± 7.1 kg/m3 | 198.39 ± 11 mPa·s | 1808.3 ± 5.2 m/s | 1143.39 ± 7.1 kg/m3 | 154.49 ± 7.3 mPa·s | 1800.5 ± 5.2 m/s | 1140.95 ± 7.1 kg/m3 | 122.56 ± 5.2 mPa·s | 1792.3 ± 5.2 m/s | 1138.53 ± 7 kg/m3 | 98.17 ± 3.8 mPa·s | 1785.2 ± 5.2 m/s | 1136.12 ± 7 kg/m3 | 79.84 ± 2.8 mPa·s | 1776.4 ± 5.2 m/s | mass density ([1]; 323.15 K): 1133.73 ± 7 kg/m3; viscosity ([1]; 328.15 K): 65.37 ± 2.2 mPa·s; speed of sound ([1]; 328.15 K): 1768.3 ± 5.2 m/s; mass density ([1]; 328.15 K): 1131.34 ± 7 kg/m3; viscosity ([1]; 333.15 K): 53.98 ± 1.7 mPa·s; speed of sound ([1]; 333.15 K): 1760.4 ± 5.2 m/s; mass density ([1]; 333.15 K): 1128.97 ± 6.9 kg/m3; viscosity ([1]; 338.15 K): 45.36 ± 1.5 mPa·s; speed of sound ([1]; 338.15 K): 1752.5 ± 5.2 m/s; mass density ([1]; 338.15 K): 1126.61 ± 6.9 kg/m3; viscosity ([1]; 343.15 K): 38.38 ± 1.3 mPa·s; speed of sound ([1]; 343.15 K): 1744.7 ± 5.2 m/s; mass density ([1]; 343.15 K): 1124.25 ± 6.9 kg/m3; Glass transition temperature ([1]; DTA): -24.00 ± 4 °C
